# Values quoted from earlier work, collected in US4536335A, “Carbapenem antibiotics” (Bristol-Myers Company, priority 1983, dated 1985).
# Tested on: various Pseudomonas species
# Settings: prior art description; cited from earlier work
smiles,measurement,value
"C[C@@H](O)[C@H]1C(=O)N2C(C(=O)O)=C(SCCN)C[C@H]12 [Thienamycin, thienamycin]",activity against various Pseudomonas species,notable activity
